Literature values as cited in publication PMC2791716 (Biotechnology and bioengineering, 2009).
Read-outs that look alike come from different tables or passages of the source.

Legend:
[1] = no reference given
[2] = test system: cell adhesion to laminin-1; conditions: ref Nakahara et al. 1996

**Q.** For COc1cccc2c1C(=O)c1c(O)c3c(c(O)c1C2=O)C[C@@](O)(C(=O)CO)C[C@@H]3O[C@H]1C[C@H](N)[C@H](O)[C@H](C)O1 [doxorubicin], which “minimum effective therapeutic concentration” value ([1]; systemic delivery) is on record?
**A.** 50 mg/kg

**Q.** And the “minimum effective therapeutic concentration” value ([1]; systemic vascular concentration, converted from 50mg/kg)?
**A.** approximately 90 μM

**Q.** For TWYKIAFQRNRK, which “inhibition of cell adhesion to laminin-1” value [2] is on record?
**A.** 90%
